According to US10457655B2, “Compounds and compositions for inhibition of FASN” (FORMA Therapeutics, Inc., priority 2013, dated 2019):
Where two headings read alike, the source gives them in different places.

How the values were obtained:
PC3 cells = experiment: Cell Proliferation Assays for FASN Inhibitors (PC3 cells, MTT); assay type: cell-based; settings: Homo sapiens, PC-3, 96 h
Procedure: The effects of the FASN inhibitors on cultured cancer cell proliferation were studies with cell proliferation assays. PC3 cells were maintained at standard culture media (F12K media supplemented with 10% fetal bovine serum, 1×MEM nonessential amino acid and 1× penicillin/streptomycin). 2000-3000 cells/100 μL/well was seeded in a 96-well clear culture plate. The cells were incubated overnight in 5% CO2 at 37° C. for attachment. Cell media were removed and replaced with F12K media containing 10% lipid reduced serum and compound. The final DMSO concentration is 0.1%. The cells were maintained in 5% CO2 at 37° C. for 4 days. The viability of cells was determined by MTT assays. The IC50 of a given compound was calculated by fitting the dose response curve with a four parameter logistic equation.

FASN enzyme = FASN enzyme (Homo sapiens, UniProt P49327); experiment: Enzymatic Assay for FASN Inhibitors; assay type: biochemical
FASN enzyme, sequence (P49327 whole entry): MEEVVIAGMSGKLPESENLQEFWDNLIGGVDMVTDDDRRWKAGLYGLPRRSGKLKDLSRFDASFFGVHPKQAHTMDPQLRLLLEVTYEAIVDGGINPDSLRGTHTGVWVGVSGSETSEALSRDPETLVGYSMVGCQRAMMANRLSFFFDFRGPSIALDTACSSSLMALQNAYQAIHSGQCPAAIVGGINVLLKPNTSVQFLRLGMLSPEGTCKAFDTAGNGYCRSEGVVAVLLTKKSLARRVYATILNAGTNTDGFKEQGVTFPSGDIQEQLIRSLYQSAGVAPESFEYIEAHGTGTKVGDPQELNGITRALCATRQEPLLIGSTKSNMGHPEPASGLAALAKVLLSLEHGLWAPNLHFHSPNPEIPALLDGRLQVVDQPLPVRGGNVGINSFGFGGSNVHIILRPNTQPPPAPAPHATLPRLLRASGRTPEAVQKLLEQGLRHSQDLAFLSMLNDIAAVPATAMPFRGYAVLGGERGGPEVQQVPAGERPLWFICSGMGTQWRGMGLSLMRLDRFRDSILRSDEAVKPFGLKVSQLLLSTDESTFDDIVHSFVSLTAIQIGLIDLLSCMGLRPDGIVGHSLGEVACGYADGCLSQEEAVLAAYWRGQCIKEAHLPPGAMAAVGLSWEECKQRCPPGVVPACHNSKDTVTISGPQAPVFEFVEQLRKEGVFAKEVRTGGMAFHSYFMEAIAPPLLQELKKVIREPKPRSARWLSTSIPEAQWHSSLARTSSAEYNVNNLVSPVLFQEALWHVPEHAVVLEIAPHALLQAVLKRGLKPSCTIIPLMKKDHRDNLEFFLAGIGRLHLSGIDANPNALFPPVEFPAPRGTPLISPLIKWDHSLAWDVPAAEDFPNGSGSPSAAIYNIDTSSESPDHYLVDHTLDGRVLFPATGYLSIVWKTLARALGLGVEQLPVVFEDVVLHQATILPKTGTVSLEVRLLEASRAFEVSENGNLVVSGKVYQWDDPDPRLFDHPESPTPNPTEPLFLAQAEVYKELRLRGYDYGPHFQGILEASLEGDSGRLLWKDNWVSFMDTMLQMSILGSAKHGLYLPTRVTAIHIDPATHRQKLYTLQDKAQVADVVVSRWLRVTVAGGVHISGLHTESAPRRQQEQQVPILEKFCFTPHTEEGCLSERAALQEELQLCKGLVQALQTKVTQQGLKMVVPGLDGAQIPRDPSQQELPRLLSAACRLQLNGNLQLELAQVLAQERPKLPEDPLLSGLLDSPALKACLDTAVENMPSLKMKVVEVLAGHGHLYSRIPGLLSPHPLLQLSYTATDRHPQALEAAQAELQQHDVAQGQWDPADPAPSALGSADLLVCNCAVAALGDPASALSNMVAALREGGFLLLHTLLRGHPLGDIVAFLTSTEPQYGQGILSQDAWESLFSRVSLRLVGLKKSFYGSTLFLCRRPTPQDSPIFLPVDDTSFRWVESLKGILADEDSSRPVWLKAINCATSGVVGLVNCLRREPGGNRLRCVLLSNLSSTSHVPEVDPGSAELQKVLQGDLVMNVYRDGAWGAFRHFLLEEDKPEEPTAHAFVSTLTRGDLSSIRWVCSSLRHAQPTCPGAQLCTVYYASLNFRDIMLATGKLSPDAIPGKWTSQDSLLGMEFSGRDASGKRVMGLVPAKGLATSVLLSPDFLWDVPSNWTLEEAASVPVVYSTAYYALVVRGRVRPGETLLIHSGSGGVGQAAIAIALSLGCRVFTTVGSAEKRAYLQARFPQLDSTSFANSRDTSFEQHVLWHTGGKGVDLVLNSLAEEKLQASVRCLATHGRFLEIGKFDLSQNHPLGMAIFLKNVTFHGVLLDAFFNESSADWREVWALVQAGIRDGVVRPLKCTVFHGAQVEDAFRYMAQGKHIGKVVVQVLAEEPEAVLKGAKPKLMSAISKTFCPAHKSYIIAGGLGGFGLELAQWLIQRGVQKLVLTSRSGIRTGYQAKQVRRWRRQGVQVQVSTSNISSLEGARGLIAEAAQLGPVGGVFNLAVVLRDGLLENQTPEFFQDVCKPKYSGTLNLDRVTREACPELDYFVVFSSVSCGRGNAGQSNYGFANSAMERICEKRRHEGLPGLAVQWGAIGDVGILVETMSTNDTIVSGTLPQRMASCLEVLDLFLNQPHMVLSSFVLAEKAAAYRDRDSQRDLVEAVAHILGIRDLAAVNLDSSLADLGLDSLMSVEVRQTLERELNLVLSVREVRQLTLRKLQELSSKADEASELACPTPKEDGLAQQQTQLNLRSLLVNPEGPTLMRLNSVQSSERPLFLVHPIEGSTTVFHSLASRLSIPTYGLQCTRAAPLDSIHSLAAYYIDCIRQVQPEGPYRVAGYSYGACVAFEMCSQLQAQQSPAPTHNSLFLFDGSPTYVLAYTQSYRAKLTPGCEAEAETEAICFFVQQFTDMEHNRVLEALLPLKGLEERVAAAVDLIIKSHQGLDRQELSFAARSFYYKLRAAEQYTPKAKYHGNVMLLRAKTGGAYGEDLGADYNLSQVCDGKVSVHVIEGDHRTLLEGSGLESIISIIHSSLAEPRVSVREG
Method in brief: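 40 nM FASN preincubated with compound 60 min at 25° C in HEPES pH 7.3 buffer with 0.04% Triton X-100. Then 20 μM acetyl-CoA, 60 μM malonyl-CoA and 100 μM NADPH added for 90 min, quenched with CPM thiol probe; fluorescence 360/530 nm, IC50 by four-parameter fit.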

[1] = read-out: IC50 (uM) < 0.5, 10% lipid reduced serum, 4 days, Table 3-1

Compound | IC50 (PC3 cells; [1]) | IC50 (FASN enzyme) | IC50 (FASN enzyme; FASN enzymatic assay, Table 2-2) | IC50 (PC3 cells; read-out: IC50 (uM) ≥ 0.5, 10% lipid reduced serum, 4 days, Table 3-2)
O=C(c1ccc(-c2cnc3ccccc3c2)cc1Cl)N1CCN(C(=O)C2(O)CC2)CC1 | < 0.5 µM | < 500 nM |  | 
O=C(c1ccc(-c2nc3ccccc3[nH]2)cc1)N1CCN(C(=O)C2(O)CC2)CC1 | < 0.5 µM |  | 500 to 5000 nM | 
COc1cc(-n2cccn2)ccc1-c1ccc(C(=O)N2CCN(C(=O)C3(O)CC3)CC2)cc1 |  | < 500 nM |  | ≥ 0.5 µM
O=C(c1ccc(-c2cn3ccccc3n2)cc1)N1CCN(C(=O)C2(O)CC2)CC1 | < 0.5 µM | < 500 nM |  | 
O=C(c1ccc(-c2cc3ccccn3n2)cc1)N1CCN(C(=O)C2(O)CC2)CC1 | < 0.5 µM | < 500 nM |  | 
N#Cc1c[nH]c2ccc(-c3ccc(C(=O)N4CCN(C(=O)C5(O)CC5)CC4)cc3Cl)cc12 | < 0.5 µM | < 500 nM |  | 
N#Cc1c[nH]c2ccc(-c3ccc(C(=O)N4CCN(C(=O)C5(O)CC5)CC4)c(Cl)c3)cc12 | < 0.5 µM | < 500 nM |  | 
CC(C)n1cc(C#N)c2cc(-c3ccc(C(=O)N4CCN(C(=O)C5(O)CC5)CC4)cc3)ccc21 | < 0.5 µM | < 500 nM |  | 
O=C(c1ccc(-c2ccc3[nH]c(=O)ccc3c2)cc1)N1CCN(C(=O)C2(O)CC2)CC1 | < 0.5 µM |  |  | 
CC(C)S(=O)(=O)Nc1cccc(-c2ccc(C(=O)N3CCN(C(=O)C4(O)CC4)CC3)cc2)c1 | < 0.5 µM | < 500 nM |  | 
O=C(c1ccc(-c2cn3ccccc3n2)cc1Cl)N1CCN(C(=O)C2(O)CC2)CC1 [1-({4-[(2-chloro-4-{imidazo[1,2-a]pyridin-2-yl}phenyl)carbonyl]piperazin-1-yl}carbonyl)cyclopropan-1-ol] | < 0.5 µM | < 500 nM |  | 
O=C(c1ccc2nc(-c3ccccc3)sc2c1)N1CCN(C(=O)C2(O)CC2)CC1 [1-({4-[(2-phenyl-1,3-benzothiazol-6-yl)carbonyl]piperazin-1-yl}carbonyl)cyclopropan-1-ol] | < 0.5 µM | < 500 nM |  | 
O=C(c1ccc(-c2ccc3[nH]ccc3n2)cc1)N1CCN(C(=O)C2(O)CC2)CC1 [1-({4-[(4-{1H-pyrrolo[3,2-b]pyridin-5-yl}phenyl)carbonyl]piperazin-1-yl}carbonyl)cyclopropan-1-ol] | < 0.5 µM | < 500 nM |  | 
O=C(c1ccc(-c2ccc3occc3n2)cc1)N1CCN(C(=O)C2(O)CC2)CC1 [1-({4-[(4-{furo[3,2-b]pyridin-5-yl}phenyl)carbonyl]piperazin-1-yl}carbonyl)cyclopropan-1-ol] | < 0.5 µM | < 500 nM |  | 
O=C(c1ccc(-c2ccc3nccn3n2)cc1)N1CCN(C(=O)C2(O)CC2)CC1 [1-({4-[(4-{imidazo[1,2-b]pyridazin-6-yl}phenyl)carbonyl]piperazin-1-yl}carbonyl)cyclopropan-1-ol] | < 0.5 µM | < 500 nM |  | 
O=C(c1ccc(-c2ccc3ccccc3n2)c(F)c1F)N1CCN(C(=O)C2(O)CC2)CC1 [1-[(4-{[2,3-difluoro-4-(quinolin-2-yl)phenyl]carbonyl}piperazin-1-yl)carbonyl]cyclopropan-1-ol] | < 0.5 µM | < 500 nM |  | 
Cn1ccc2cc(-c3ccc(C(=O)N4CCN(C(=O)C5(O)CC5)CC4)c(Cl)c3)ccc21 [1-[(4-{[2-chloro-4-(1-methyl-1H-indol-5-yl)phenyl]carbonyl}piperazin-1-yl)carbonyl]cyclopropan-1-ol] | < 0.5 µM | < 500 nM |  | 
O=C(c1ccc(-c2ccc3ncccc3c2)cc1Cl)N1CCN(C(=O)C2(O)CC2)CC1 [1-[(4-{[2-chloro-4-(quinolin-6-yl)phenyl]carbonyl}piperazin-1-yl)carbonyl]cyclopropan-1-ol] | < 0.5 µM | < 500 nM |  | 
Cn1ccc2cc(-c3ccc(C(=O)N4CCN(C(=O)C5(O)CC5)CC4)c(F)c3)ccc21 [1-[(4-{[2-fluoro-4-(1-methyl-1H-indol-5-yl)phenyl]carbonyl}piperazin-1-yl)carbonyl]cyclopropan-1-ol] | < 0.5 µM | < 500 nM |  | 

Compound | IC50 (PC3 cells; [1]) | IC50 (FASN enzyme) | IC50 (FASN enzyme; FASN enzymatic assay, Table 2-2) | IC50 (PC3 cells; read-out: IC50 (uM) ≥ 0.5, 10% lipid reduced serum, 4 days, Table 3-2)
COc1nc2ccccc2cc1-c1ccc(C(=O)N2CCN(C(=O)C3(O)CC3)CC2)c(F)c1 [1-[(4-{[2-fluoro-4-(2-methoxyquinolin-3-yl)phenyl]carbonyl}piperazin-1-yl)carbonyl]cyclopropan-1-ol] | < 0.5 µM | < 500 nM |  | 
COc1ccc2nc(-c3ccc(C(=O)N4CCN(C(=O)C5(O)CC5)CC4)c(F)c3)ccc2c1 [1-[(4-{[2-fluoro-4-(6-methoxyquinolin-2-yl)phenyl]carbonyl}piperazin-1-yl)carbonyl]cyclopropan-1-ol] | < 0.5 µM | < 500 nM |  | 
O=C(c1ccc(-c2cc(F)c3[nH]ccc3c2)cc1F)N1CCN(C(=O)C2(O)CC2)CC1 [1-[(4-{[2-fluoro-4-(7-fluoro-1H-indol-5-yl)phenyl]carbonyl}piperazin-1-yl)carbonyl]cyclopropan-1-ol] | < 0.5 µM | < 500 nM |  | 
O=C(c1ccc(-c2cnc3ccccc3c2)cc1F)N1CCN(C(=O)C2(O)CC2)CC1 [1-[(4-{[2-fluoro-4-(quinolin-3-yl)phenyl]carbonyl}piperazin-1-yl)carbonyl]cyclopropan-1-ol] | < 0.5 µM | < 500 nM |  | 
O=C(c1ccc(-c2ccc3ncccc3c2)cc1F)N1CCN(C(=O)C2(O)CC2)CC1 [1-[(4-{[2-fluoro-4-(quinolin-6-yl)phenyl]carbonyl}piperazin-1-yl)carbonyl]cyclopropan-1-ol] | < 0.5 µM | < 500 nM |  | 
Cn1ccc2cc(-c3ccc(C(=O)N4CCN(C(=O)C5(O)CC5)CC4)cc3Cl)ccc21 [1-[(4-{[3-chloro-4-(1-methyl-1H-indol-5-yl)phenyl]carbonyl}piperazin-1-yl)carbonyl]cyclopropan-1-ol] | < 0.5 µM | < 500 nM |  | 
O=C(c1ccc(-c2cnc3ccccc3c2)c(Cl)c1)N1CCN(C(=O)C2(O)CC2)CC1 [1-[(4-{[3-chloro-4-(quinolin-3-yl)phenyl]carbonyl}piperazin-1-yl)carbonyl]cyclopropan-1-ol] | < 0.5 µM | < 500 nM |  | 
COc1ccc(OC(F)(F)F)cc1-c1ccc(C(=O)N2CCN(C(=O)C3(O)CC3)CC2)cc1 [1-{[4-({4-[2-methoxy-5-(trifluoromethoxy)phenyl]phenyl}carbonyl)piperazin-1-yl]carbonyl}cyclopropan-1-ol] | < 0.5 µM |  |  | 
Cc1cc2ccccc2n1-c1ccc(C(=O)N2CCN(C(=O)C3(O)CC3)CC2)cc1 [(4-(1-hydroxycyclopropane-1-carbonyl)piperazin-1-yl)(4-(2-methyl-1H-indol-1-yl)phenyl)methanone] |  | < 500 nM |  | 
Cc1nn(-c2ccc(C(=O)N3CCN(C(=O)C4(O)CC4)CC3)cc2)c2ccccc12 [(4-(1-hydroxycyclopropane-1-carbonyl)piperazin-1-yl)(4-(3-methyl-1H-indazol-1-yl)phenyl)methanone] |  | < 500 nM |  | 
O=C(c1ccc(-c2cccc(NS(=O)(=O)C3CCC3)c2)cc1)N1CCN(C(=O)C2(O)CC2)CC1 [N-(3-{4-[4-(1-hydroxycyclopropanecarbonyl)piperazine-1-carbonyl]phenyl}phenyl)cyclobutanesulfonamide] |  | < 500 nM |  | 
O=C(Nc1cccc(-c2ccc(C(=O)N3CCN(C(=O)C4(O)CC4)CC3)cc2)c1)C1CCCC1 [N-(3-{4-[4-(1-hydroxycyclopropanecarbonyl)piperazine-1-carbonyl]phenyl}phenyl)cyclopentanecarboxamide] |  | < 500 nM |  | 
O=C(c1ccc(-c2cccc(NS(=O)(=O)C3CCOCC3)c2)cc1)N1CCN(C(=O)C2(O)CC2)CC1 [N-(3-{4-[4-(1-hydroxycyclopropanecarbonyl)piperazine-1-carbonyl]phenyl}phenyl)oxane-4-sulfonamide] |  | < 500 nM |  | 
O=C(Nc1noc2ccc(-c3ccc(C(=O)N4CCN(C(=O)C5(O)CC5)CC4)cc3)cc12)C1CC1 [N-(5-{4-[4-(1-hydroxycyclopropanecarbonyl)piperazine-1-carbonyl]phenyl}-1,2-benzoxazol-3-yl)cyclopropanecarboxamide] |  | < 500 nM |  | 
O=C(Nc1noc2cc(-c3ccc(C(=O)N4CCN(C(=O)C5(O)CC5)CC4)cc3)ccc12)C1CC1 [N-(6-{4-[4-(1-hydroxycyclopropanecarbonyl)piperazine-1-carbonyl]phenyl}-1,2-benzoxazol-3-yl)cyclopropanecarboxamide] |  | < 500 nM |  | 
O=C(NC1CC1)c1cccc(-c2ccc(C(=O)N3CCN(C(=O)C4(O)CC4)CC3)cc2)c1 [N-cyclopropyl-3-[4-({4-[(1-hydroxycyclopropyl)carbonyl]piperazin-1-yl}carbonyl)phenyl]benzamide] |  | < 500 nM |  | 
O=C(c1ccc(-c2cccc(S(=O)(=O)NC3CC3)c2)cc1)N1CCN(C(=O)C2(O)CC2)CC1 [N-cyclopropyl-3-[4-({4-[(1-hydroxycyclopropyl)carbonyl]piperazin-1-yl}carbonyl)phenyl]benzene-1-sulfonamide] |  | < 500 nM |  | 
CCOC(=O)Nc1cccc(-c2ccc(C(=O)N3CCN(C(=O)C4(O)CC4)CC3)cc2)c1 [ethyl N-(3-{4-[4-(1-hydroxycyclopropanecarbonyl)piperazine-1-carbonyl]phenyl}phenyl)carbamate] |  | < 500 nM |  | 
CC(C)OC(=O)Nc1cccc(-c2ccc(C(=O)N3CCN(C(=O)C4(O)CC4)CC3)cc2)c1 [propan-2-yl N-(3-{4-[4-(1-hydroxycyclopropanecarbonyl)piperazine-1-carbonyl]phenyl}phenyl)carbamate] |  | < 500 nM |  | 
